# Experimental data published in article PMC10349142, “Minimal mechanistic component of HbYX-dependent proteasome activation that reverses impairment by neurodegenerative-associated oligomers” (Communications Biology, 2023).
# Experiments:
# [1] = biological target: T1, Mammalian 20S proteasome (M20S); assay: fluorogenic peptide hydrolysis, activator saturation curve; assay type: biochemical, Bos taurus
# T1 construct: gene PSMA5; native 20S core particle purified from bovine liver; alpha7-beta7-beta7-alpha7; with Proteasome subunit beta type-1; Proteasome subunit beta type-2; Proteasome subunit beta type-3; Proteasome subunit beta type-4; Proteasome subunit beta type-5; Proteasome subunit beta type-6; Proteasome subunit beta type-7
# Excerpt: fluorogenic peptide hydrolysis, activator saturation curve on Mammalian 20S proteasome (M20S)
# [2] = biological target: T1, Mammalian 20S proteasome (M20S); assay: fluorogenic peptide hydrolysis, activator saturation curve (Hill fit); assay type: biochemical, Bos taurus; conditions: activation (gate opening); nLPnLD-AMC substrate; 0.5 nM 20S; pH 7.5; 37 °C; 2% DMSO; allosteric, alpha intersubunit pockets; read-out: Kobs
# Excerpt: fluorogenic peptide hydrolysis, activator saturation curve (Hill fit) on Mammalian 20S proteasome (M20S)
# [3] = biological target: T2, T. acidophilum 20S proteasome (T20S) (Thermoplasma acidophilum, UniProt P25156); assay: LFP nonapeptide hydrolysis, dose response; assay type: biochemical; conditions: activation (gate opening); 7 nM T20S; LFP substrate; pH 7.5; 45 °C; 2% DMSO; allosteric, alpha intersubunit pockets
# T2 construct: gene psmA; recombinant 20S core particle; 8xHis tag on C-terminus of beta subunit; with Proteasome subunit beta
# [4] = biological target: T3, T. acidophilum 20S proteasome (T20S) (Thermoplasma acidophilum, UniProt P25156, K66A); assay: LFP nonapeptide hydrolysis; assay type: biochemical; conditions: 7 nM T20S; LFP substrate; pH 7.5; 45 °C; 2% DMSO
# T3 construct: gene psmA; recombinant 20S core particle; 8xHis tag on C-terminus of beta subunit; with Proteasome subunit beta
# [5] = biological target: T4, T. acidophilum 20S proteasome (T20S) (Thermoplasma acidophilum, UniProt P25156, DEL2-12); assay: LFP nonapeptide hydrolysis; assay type: biochemical; conditions: 7 nM T20S; LFP substrate; pH 7.5; 45 °C; 2% DMSO
# T4 construct: gene psmA; recombinant 20S core particle; 8xHis tag on C-terminus of beta subunit; with Proteasome subunit beta
# [6] = activation; pH 7.5; 37 °C; 2% DMSO; site unknown; read-out: Kobs
# T2 sequence (P28061 9-211, stated change not applied): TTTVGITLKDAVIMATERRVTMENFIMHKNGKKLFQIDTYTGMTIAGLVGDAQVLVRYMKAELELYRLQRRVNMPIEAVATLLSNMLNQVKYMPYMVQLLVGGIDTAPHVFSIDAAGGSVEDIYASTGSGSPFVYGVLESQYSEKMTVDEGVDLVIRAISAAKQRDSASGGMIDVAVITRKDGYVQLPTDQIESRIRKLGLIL
# T2 sequence (P25156 whole entry, stated change not applied): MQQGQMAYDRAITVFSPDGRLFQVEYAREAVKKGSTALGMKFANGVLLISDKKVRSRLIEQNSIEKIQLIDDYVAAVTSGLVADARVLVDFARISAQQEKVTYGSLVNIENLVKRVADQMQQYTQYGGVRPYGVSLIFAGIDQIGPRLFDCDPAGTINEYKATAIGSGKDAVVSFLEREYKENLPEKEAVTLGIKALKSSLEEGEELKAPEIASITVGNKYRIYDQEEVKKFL
# T3 sequence (P25156 whole entry K66A): as the sequence (P25156 whole entry, stated change not applied) above, with K66A counted along it
# T3 sequence (P28061 9-211, further chain): as the sequence (P28061 9-211, stated change not applied) above
# T4 sequence (P25156 other isoform, or with tags, fused parts or gaps DEL2-12): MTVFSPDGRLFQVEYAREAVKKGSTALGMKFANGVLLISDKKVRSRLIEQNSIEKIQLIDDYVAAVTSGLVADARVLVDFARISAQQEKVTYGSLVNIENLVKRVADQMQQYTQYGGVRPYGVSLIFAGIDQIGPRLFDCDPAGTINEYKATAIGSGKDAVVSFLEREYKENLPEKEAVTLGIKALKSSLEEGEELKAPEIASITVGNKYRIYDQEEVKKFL
# T4 sequence (P28061 9-211, stated change not applied, further chain): as the sequence (P28061 9-211, stated change not applied) above
compound,measurement,setting,value
CCCCC/C=C\C/C=C\C/C=C\C/C=C\CCCC(=O)Nc1ccc(O)cc1 [AM-404],EC50,[1]; read-out: Kobs; activation; pH 7.5; 37 °C; 2% DMSO; site unknown,12.1 µM
O=C1NCN(c2ccccc2)C12CCN(CCCC(c1ccc(F)cc1)c1ccc(F)cc1)CC2 [Fluspirilene],EC50,[1]; [6],2.7 µM
CCOC(=O)[C@]1(c2ccccc2)N=C(c2ccc(OC)cc2)N(Cc2ccccc2)[C@@H]1c1ccc(NCc2ccccc2)cc1 [TCH-165],EC50,[1]; [6],0.8 µM
C[C@H](NC(=O)[C@H](Cc1ccc(O)cc1)NC(=O)OCc1ccccc1)C(=O)O [ZYA],EC50,[2],970 µM
same,affinity,[3],highly similar to its affinity for the T20S (Fig. 2b)
same,no activation at 2.5 mM,[4],it could not stimulate gate-opening in T20S-K66A to any extent (Fig. 2d)
same,no activation at 2.5 mM,[5],ZYA did not stimulate the activity of αΔN-T20S to any extent (Fig. 2e)
